From article PMC12836451, “Cyclic Peptide–Polymer Conjugate Nanotubes for Delivery of SN‐38 in Treatment of Colorectal Cancer Model” (Advanced Healthcare Materials, 2025)
pIC50: −log10 of the molar value. Structures can show the parent of a compound that is named as a salt. Where two headings read alike, the source gives them in different places.

Tests used:
[1] = cited from earlier work
Description: Despite significant scientific advances in recent decades, cancer remains one of the most formidable challenges for modern medicine. The rising rates of colorectal cancer (CRC) diagnoses, particularly amongst younger people, exemplify the new complexities faced. Despite efforts to promote early detection and fast onset of treatment, the prognosis for CRC remains grim, ranking as one of the deadliest malignancies worldwide.

[2] = system: CT26 cells; test: MTS cell viability assay; format: cell-based, murine; conditions: Mus musculus, CT26, 48 h
Description: Cells were typically grown to 70–80% confluence before passaging, and cells were not used past 20 passages total.
The wells were then treated with 20 µL of MTS reagent (Promega, CellTiter 96 AQeuous One Solution Cell Proliferation Assay) for 4 h, before UV absorbance reading on Biotek Cytation 3 Plate reader (490 nm). The relative cell viability was determined by comparison to untreated cells or cells with DMSO or EtOH at a range of concentrations.

[3] = Pharmacokinetics study in mice (plasma, LC-MS, non-compartmental); conditions: non-tumor female BALB/c mice, i.v., irinotecan 15 mg kg−1 or SN-38 nanotubes 10 mg kg−1 drug, SN-38 = prodrug and hydrolysed forms combined
[4] = system: CT26 spheroids; test: 3D spheroid growth assay; format: cell-based, murine; conditions: 10 µM, control grew by over 300 µm
Description: CT26 cells were harvested and seeded in a non‐tissue culture‐treated, U‐bottom‐shaped 96‐well plates at a density of 500 cells per well (200 µL media per well), before centrifugation at 500 xG for 10 minutes. The plate incubated and the spheroids allowed to form over a period of days (typically 5–8). […] Non‐treated/Control spheroids received fresh media.

[5] = system: CT26 xenograft; conditions: CT26 xenograft mice, three i.v. doses

Structure (SMILES)	aqueous solubility ([1]; reason for not testing in vivo)	pIC50 ([2]; concentrations are SN-38 concentration, n = 3, read-out: IC50)	C max [3] [µM]	reduction of potency compared to SN-38 [1]	increase of spheroid diameter over 5 days [4] [µm]	pIC50 ([2]; n = 3, read-out: concentration required to achieve more than 50% cell death)	tolerability (body weight, welfare scoring) [5]
CCc1c2c(nc3ccc(O)cc13)-c1cc3c(c(=O)n1C2)COC(=O)[C@]3(O)CC [SN-38, 7‐ethyl‐10‐hydroxycamptothecin]	poor aqueous solubility	~6.70	–	–	–	–	–
CCc1c2c(nc3ccc(OC(=O)N4CCC(N5CCCCC5)CC4)cc13)-c1cc3c(c(=O)n1C2)COC(=O)[C@]3(O)CC [Irinotecan, irinotecan hydrochloride]	–	–	29.6	100–1000 fold	40	< 5.00	well tolerated
